Tests used:
Type in all cases: cell-based, human
AKT = experiment: Immunoblot of AKT activation after PPF; conditions: T98G and GBM43 cells treated with PPF
Experimental: (§1) FIGS. 26A, 26B, and 26C depict that PPF sensitizes GBM cells to TMZ and radiotherapy. FIG. 26A—A clonogenic assay was used to assess T98G and GBM43 cells survival after TMZ and radiation treatment. Cells were pre-treated with 5 μM PPF for 24 hours, and then either treated with 250 μM TMZ for 24 hours or exposed to 2 Gy radiation. Graph depicts the surviving fraction in the treated cells compared to vehicle (VC) treated or non-treated (NT) cells, **p<0.01. FIG. 26B—T98G glioma cells were treated with vehicle, PPF (5 μM) TMZ (250 μM) and PPF in combination with TMZ. TMZ-induced apoptosis was assayed by immunoblot analysis of cell lysates with an antibody to cleaved PARP. Immunoblotting for α-Tubulin was included as a loading control. FIG. 26C—T98G, GBM10, and GBM43 cells were treated with PPF ([…], and then immunoblotted to assess the activation of AKT and NF-κB. Immunoblotting for β-Actin is included as a loading control.
(§2) Referring now to FIGS. 26A, 26B, and 26C: Knockdown of TROY expression with shRNA decreases TMZ resistance in GBM cells in vitro (See Reference 42). […] Following combination therapy, cells were trypsinized, counted, and plated in a 6-well culture dish at densities of 100, 250, and 500 cells per well in triplicate. Cells were incubated for 12 days then fixed, stained with 0.5% crystal violet solution, and counted manually by blinded observers. […]

[1] = test system: T98G, GBM10, and GBM43 cells; experiment: CellTiterGlo cytotoxicity assay; conditions: 0.5 to 20 μM PPF, 72 hours
Experimental: FIG. 25A—T98G, GBM43, and GBM10 cells were incubated with increasing concentrations of PPF (0, 5, 50, and 500 After 0, 48, 96 and 144 hours of treatment, cell were trypsinized and counted using an automated cell counter. FIG. 25B—GBM43, GBM10, and T98G glioma cells were treated with increasing doses of PPF (0.5, 1, 5, 10, and 20 μM) in triplicate. The CellTiterGlo® (Promega) reagent was used to measure survival. Raw values were normalized on a plate-by-plate basis such that 100% cell viability was equivalent to the mean of vehicle wells and 0% cell viability was equivalent to the mean of the MG132 positive control. The normalized data was used to assess viability of glioma cells after PPF treatment.
Referring now to FIGS. 25A and 25B: To determine if PPF influences glioma cell proliferation, the inventors treated T98G, GBM10, and GBM43 cells with increasing concentrations of PPF and evaluated cell proliferation over the course of 144 hours. Briefly, 1.25×10^5 cells were seeded (n=3) in 12-well plates in 1 mL of DMEM supplemented with 10% FBS and allowed to attach at 37° C. for 16 hrs. […] After 0, 48, 96 and 144 hours of treatment, the cells were trypsinized and counted using the automated cell counter. […] Subsequently, 100 μL of CellTiterGlo® reagent was added to each well and luminescence was measured using Envision Reader. […]

EGFR = experiment: Western blot of EGFR expression after PPF treatment; conditions: T98G, GBM10, GBM43 cells, 5 μM PPF, 24 hours
Experimental: FIG. 24A—a Western blot analysis of TROY expression in T98G cells. Cells were treated with PPF at indicated concentrations for 6 hrs, lysed, and cell lysates immunoblotted with anti-TROY antibody. Immunoblotting of α-Tubulin in cell lysates is included as a loading control. FIG. 24B—Western blot analysis of TROY expression in T98G, GBM43, and GBM10 cells. Cells were treated with PPF at indicated concentrations for 24 hrs, lysed, and cell lysates immunoblotted with anti-TROY and α-Tubulin antibodies. FIG. 24C—Western Blot analysis of TROY expression in GBM10 and GBM43 primary glioma cells. Cells were treated with 5 μM PPF, lysed at the indicated time-points, and the lysates immunoblotted with an anti-TROY antibody. Immunoblotting of β-Actin in cell lysates is included as a loading control. FIG. […]—Western Blot analysis of T98G, GBM10 and GBM43 glioma cells treated with 5 μM PPF for 24 hours. […]
Referring now to FIGS. 24A, 24B, 24C, and 24D: The inventors investigated if PPF could be utilized pharmacologically to decrease TROY expression in GBM cells. […] Cells were treated with increasing concentration of PPF, 1 to 20 μM lysed, and TROY expression assessed by immunobloting. […] Protein concentrations were determined using the BCA Assay (Pierce). […] Protein bands were detected using SuperSignal® Chemiluminescent Substrate (Pierce) with a UVP BioSpectrum 500 Imaging System.

NF-κB = experiment: Immunoblot of NF-κB activation after PPF; conditions: T98G and GBM43 cells treated with PPF
Experimental: as §1, §2

CCCn1cnc2c1c(=O)n(CCCCC(C)=O)c(=O)n2C [PPF, 3-methyl-1-(5-oxohexyl)-7-propyl-3,7-dihydro-1H-purine-2,6-dione]
AKT phosphorylation (AKT): effectively decreased
cell viability [1]: negligible loss of cell viability
EGFR expression (EGFR): did not affect the expression
NF-κB phosphorylation (NF-κB): effectively decreased
